Experimental findings from patent publication US10494683B2, “Nitrate- and nitrite-reducing probiotic feed additive” (The United States of America, as represented by the …, priority 2015, dated 2019) are described below.

Test [1] deals with mixed ruminal microorganisms. Kind of test: CH4 production in vitro with mixed ruminal microorganisms. It is filed as cell-based.
Test [2] concerns Holstein steers. Kind of test: Ruminally cannulated steers given NaNO3 with or without strain NRRL 67118. It counts as in vivo. To be noted: rumen samples of treated steers incubated in vitro.

Consider `O=N[O-].[Na+]` [NO2, NaNO2], for which the CH4 production entry in test [1] is “zero”.

In the case of `O=[N+]([O-])[O-].[Na+]` [NO3, NaNO3], the dCH4/dt in test [2] (83 mg NaNO3/kg body weight daily, Control 4.13) is 2.22 b umol/ml per h. For the same compound, the Nitrate reduction in test [2] (Control 0.42) came to 0.54 e mM/hr. The compound also yielded a Nitrite reduction in test [2] (Control 1.21) of 1.38 c mM/hr.
